Target: ROCK2 (human) (UniProt O75116)
Assay: Inhibition of ROCK2 Kinase Activity

ROCK2 (human), sequence (O75116 whole entry, looked up): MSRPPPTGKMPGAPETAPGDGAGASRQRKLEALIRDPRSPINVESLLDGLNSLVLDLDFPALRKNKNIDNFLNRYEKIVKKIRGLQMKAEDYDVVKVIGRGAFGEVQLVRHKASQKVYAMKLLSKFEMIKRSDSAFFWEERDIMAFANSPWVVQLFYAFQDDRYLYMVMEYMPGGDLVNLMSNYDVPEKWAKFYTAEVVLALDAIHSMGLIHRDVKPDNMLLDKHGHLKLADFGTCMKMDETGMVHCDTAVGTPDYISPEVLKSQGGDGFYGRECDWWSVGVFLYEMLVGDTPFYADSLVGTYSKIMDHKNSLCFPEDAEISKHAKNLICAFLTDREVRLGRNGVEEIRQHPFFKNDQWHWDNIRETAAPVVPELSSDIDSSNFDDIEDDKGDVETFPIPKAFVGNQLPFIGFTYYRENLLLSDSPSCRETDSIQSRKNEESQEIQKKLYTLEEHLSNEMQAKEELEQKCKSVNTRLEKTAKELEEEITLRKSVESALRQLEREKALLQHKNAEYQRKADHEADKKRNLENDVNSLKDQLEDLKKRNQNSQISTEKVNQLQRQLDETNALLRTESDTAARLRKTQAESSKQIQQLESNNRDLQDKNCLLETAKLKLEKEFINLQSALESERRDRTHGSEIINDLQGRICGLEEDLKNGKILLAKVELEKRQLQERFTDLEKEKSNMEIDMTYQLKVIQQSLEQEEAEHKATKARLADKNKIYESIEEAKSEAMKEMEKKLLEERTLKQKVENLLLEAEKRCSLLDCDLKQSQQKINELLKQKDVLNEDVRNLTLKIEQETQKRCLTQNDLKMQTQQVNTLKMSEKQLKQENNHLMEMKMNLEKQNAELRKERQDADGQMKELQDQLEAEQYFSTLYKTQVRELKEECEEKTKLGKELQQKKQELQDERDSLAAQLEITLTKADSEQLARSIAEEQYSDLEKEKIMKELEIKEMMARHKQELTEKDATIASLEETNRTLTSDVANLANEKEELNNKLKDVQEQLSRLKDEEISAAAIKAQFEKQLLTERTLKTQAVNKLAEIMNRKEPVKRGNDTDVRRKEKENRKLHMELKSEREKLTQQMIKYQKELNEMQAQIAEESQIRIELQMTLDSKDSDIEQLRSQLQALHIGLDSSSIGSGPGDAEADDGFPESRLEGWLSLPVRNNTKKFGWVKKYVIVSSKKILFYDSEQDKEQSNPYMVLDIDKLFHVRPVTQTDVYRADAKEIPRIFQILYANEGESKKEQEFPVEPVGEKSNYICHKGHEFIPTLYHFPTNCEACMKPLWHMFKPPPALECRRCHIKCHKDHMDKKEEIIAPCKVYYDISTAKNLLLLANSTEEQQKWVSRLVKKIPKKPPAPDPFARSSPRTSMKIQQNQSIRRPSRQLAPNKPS

IC50	Structure (SMILES)
50 to 500 nM	NC(CC(=O)NCc1ccccc1C(F)(F)F)c1ccc(C(=O)Nc2ccncc2)cc1 (configuration not stated)
500 to 5000 nM	CC(=O)NCC(N)c1ccc(C(=O)Nc2ccncc2)cc1 (configuration not stated)
50 to 500 nM	COc1cccc(CC(=O)N(C)CC(N)c2ccc(C(=O)Nc3ccncc3)cc2)c1 (configuration not stated)
50 to 500 nM	Cc1cccc(CNC(=O)CC(N)c2ccc(C(=O)Nc3ccncc3)cc2)c1 (configuration not stated)
500 to 5000 nM	CN(CC(N)c1ccc(C(=O)Nc2ccncc2)cc1)C(=O)Cc1cc(F)ccc1F (configuration not stated)
500 to 5000 nM	NC(CNC(=O)C1CCCCC1)c1ccc(C(=O)Nc2ccncc2)cc1 (configuration not stated)
< 50 nM	N[C@H](CC(=O)NC1COc2ccccc21)c1ccc(C(=O)Nc2ccncc2)cc1 (some centres not stated)
50 to 500 nM	NC(CC(=O)NCCc1ccccc1Cl)c1ccc(C(=O)Nc2ccncc2)cc1 (configuration not stated)
50 to 500 nM	Cc1ccccc1CC(=O)NCC(N)c1ccc(C(=O)Nc2ccncc2)cc1 (configuration not stated)
500 to 5000 nM	NC(CNC(=O)CC1CCCCC1)c1ccc(C(=O)Nc2ccncc2)cc1 (configuration not stated)
500 to 5000 nM	NC(CNC(=O)c1cccc(S(=O)(=O)Nc2ccccc2)c1)c1ccc(C(=O)Nc2ccncc2)cc1 (configuration not stated)
500 to 5000 nM	NC(CNC(=O)c1ccnc2ccccc12)c1ccc(C(=O)Nc2ccncc2)cc1 (configuration not stated)
50 to 500 nM	NC(c1ccc(C(=O)Nc2ccncc2)cc1)C1CCCN1C(=O)C1Cc2ccccc21 (configuration not stated)
500 to 5000 nM	NC(c1ccc(C(=O)Nc2ccncc2)cc1)C1CCCN1C(=O)C1(c2ccc(Cl)cc2)CCC1 (configuration not stated)
50 to 500 nM	CC1CCC(NC(=O)CC(N)c2ccc(C(=O)Nc3ccncc3)cc2)CC1 (configuration not stated)
500 to 5000 nM	NC(c1ccc(C(=O)Nc2ccncc2)cc1)C1CCCN1C(=O)Cc1c[nH]c2ccccc12 (configuration not stated)
50 to 500 nM	NC(CNC(=O)c1ccc2c(c1)OCO2)c1ccc(C(=O)Nc2ccncc2)cc1 (configuration not stated)
50 to 500 nM	CONC(=O)CC(N)c1ccc(C(=O)Nc2ccncc2)cc1 (configuration not stated)
50 to 500 nM	NC(CC(=O)N(CCc1ccccc1)Cc1ccccc1)c1ccc(C(=O)Nc2ccncc2)cc1 (configuration not stated)
500 to 5000 nM	CC(C)C(C(=O)N(C)CC(N)c1ccc(C(=O)Nc2ccncc2)cc1)c1ccc(Cl)cc1 (configuration not stated)
50 to 500 nM	Cc1ccccc1CNC(=O)NCC(N)c1ccc(C(=O)Nc2ccncc2)cc1 (configuration not stated)
50 to 500 nM	NC(CC(=O)NCc1ccccc1)c1ccc(C(=O)Nc2ccncc2)cc1 (configuration not stated)
50 to 500 nM	NC(CNC(=O)c1ccc2[nH]ccc2c1)c1ccc(C(=O)Nc2ccncc2)cc1 (configuration not stated)
500 to 5000 nM	CN(CC(N)c1ccc(C(=O)Nc2ccncc2)cc1)C(=O)Cc1ccc(Cl)cc1F (configuration not stated)
500 to 5000 nM	NC(CNC(=O)c1cccc(Cn2cccn2)c1)c1ccc(C(=O)Nc2ccncc2)cc1 (configuration not stated)
50 to 500 nM	NC(CC(=O)NNC(=O)c1ccco1)c1ccc(C(=O)Nc2ccncc2)cc1 (configuration not stated)

IC50	Structure (SMILES)
500 to 5000 nM	N[C@@H](CNC(=O)C1(c2ccc(F)cc2)CCCC1)c1ccc(C(=O)Nc2ccncc2)cc1
50 to 500 nM	N[C@@H](CC(=O)NC1COc2ccccc21)c1ccc(C(=O)Nc2ccncc2)cc1 (some centres not stated)
500 to 5000 nM	CC(C)(C)c1ccc(NC(=O)NCC(N)c2ccc(C(=O)Nc3ccncc3)cc2)cc1 (configuration not stated)
50 to 500 nM	NC(CC(=O)Nc1ccccc1)c1ccc(C(=O)Nc2ccncc2)cc1 (configuration not stated)
50 to 500 nM	NC(CC(=O)Nc1ccc2[nH]ccc2c1)c1ccc(C(=O)Nc2ccncc2)cc1 (configuration not stated)
50 to 500 nM	Cc1ccc(CC(=O)NCC(N)c2ccc(C(=O)Nc3ccncc3)cc2)cc1 (configuration not stated)
500 to 5000 nM	NC(CNC(=O)CC1CC1)c1ccc(C(=O)Nc2ccncc2)cc1 (configuration not stated)
500 to 5000 nM	CN(CC(N)c1ccc(C(=O)Nc2ccncc2)cc1)C(=O)C1CCCc2ccccc21 (configuration not stated)
50 to 500 nM	NC(CNC(=O)Nc1cccc2ccccc12)c1ccc(C(=O)Nc2ccncc2)cc1 (configuration not stated)
500 to 5000 nM	NC(c1ccc(C(=O)Nc2ccncc2)cc1)C1CCCN1C(=O)C1CCSc2ccc(F)cc21 (configuration not stated)
500 to 5000 nM	NC(c1ccc(C(=O)Nc2ccncc2)cc1)C1CCCN1C(=O)C1(c2cccs2)CC1 (configuration not stated)
500 to 5000 nM	NC(CNC(=O)c1ccc(Oc2ccccc2)cc1)c1ccc(C(=O)Nc2ccncc2)cc1 (configuration not stated)
50 to 500 nM	NC(CNC(=O)C1(c2ccc(Cl)c(Cl)c2)CC1)c1ccc(C(=O)Nc2ccncc2)cc1 (configuration not stated)
500 to 5000 nM	NC(c1ccc(C(=O)Nc2ccncc2)cc1)C1CCCN1C(=O)C1(c2ccsc2)CC1 (configuration not stated)
50 to 500 nM	NC(CNC(=O)Cc1cccc(Cl)c1)c1ccc(C(=O)Nc2ccncc2)cc1 (configuration not stated)
500 to 5000 nM	CN(CC(N)c1ccc(C(=O)Nc2ccncc2)cc1)C(=O)Cc1c(F)cccc1Cl (configuration not stated)
500 to 5000 nM	NC(c1ccc(C(=O)Nc2ccncc2)cc1)C1CCCN1C(=O)Cc1ccc(Cl)cc1 (configuration not stated)
50 to 500 nM	COc1ccc(CNC(=O)CC(N)c2ccc(C(=O)Nc3ccncc3)cc2)cc1OC (configuration not stated)
50 to 500 nM	COc1ccc(CC(=O)NCC(N)c2ccc(C(=O)Nc3ccncc3)cc2)cc1 (configuration not stated)
50 to 500 nM	NC(CC(=O)NC(c1ccccc1)c1ccc(Cl)cc1)c1ccc(C(=O)Nc2ccncc2)cc1 (configuration not stated)
50 to 500 nM	NC(CC(=O)NCCc1ccc2c(c1)OCO2)c1ccc(C(=O)Nc2ccncc2)cc1 (configuration not stated)
50 to 500 nM	NC(CNC(=O)C1(c2cccs2)CC1)c1ccc(C(=O)Nc2ccncc2)cc1 (configuration not stated)
50 to 500 nM	NC(CC(=O)NCCc1c(Cl)cccc1Cl)c1ccc(C(=O)Nc2ccncc2)cc1 (configuration not stated)
50 to 500 nM	NC(c1ccc(C(=O)Nc2ccncc2)cc1)C1CCCN1C(=O)Cc1ccc(F)cc1F (configuration not stated)
500 to 5000 nM	NC(CNC(=O)[C@@H]1CCC(=O)N1)c1ccc(C(=O)Nc2ccncc2)cc1 (some centres not stated)
50 to 500 nM	NC(CC(=O)NCc1cc(Cl)ccc1Cl)c1ccc(C(=O)Nc2ccncc2)cc1 (configuration not stated)

IC50	Structure (SMILES)
500 to 5000 nM	CN(CC(N)c1ccc(C(=O)Nc2ccncc2)cc1)C(=O)Cc1ccccc1F (configuration not stated)
500 to 5000 nM	NC(CNC(=O)c1ccccc1Nc1ccccc1)c1ccc(C(=O)Nc2ccncc2)cc1 (configuration not stated)
50 to 500 nM	NC(CC(=O)NCc1ccc(Br)cc1F)c1ccc(C(=O)Nc2ccncc2)cc1 (configuration not stated)
50 to 500 nM	NC(CNC(=O)CNC(=O)c1ccccc1)c1ccc(C(=O)Nc2ccncc2)cc1 (configuration not stated)
50 to 500 nM	COc1cc(CCNC(=O)CC(N)c2ccc(C(=O)Nc3ccncc3)cc2)cc(OC)c1 (configuration not stated)
500 to 5000 nM	CC(C)(C(=O)N1CCCC1C(N)c1ccc(C(=O)Nc2ccncc2)cc1)c1ccc(Cl)c(Cl)c1 (configuration not stated)
50 to 500 nM	NC(CC(=O)NCCc1ccc2c(c1)Cc1ccccc1-2)c1ccc(C(=O)Nc2ccncc2)cc1 (configuration not stated)
500 to 5000 nM	NC(CNC(=O)c1ccccc1-c1ccccc1)c1ccc(C(=O)Nc2ccncc2)cc1 (configuration not stated)
500 to 5000 nM	NC(c1ccc(C(=O)Nc2ccncc2)cc1)C1CCCN1C(=O)C1(c2ccc(Cl)c(Cl)c2)CCC1 (configuration not stated)
500 to 5000 nM	CC(C)(C(=O)N1CCCC1C(N)c1ccc(C(=O)Nc2ccncc2)cc1)c1ccc(F)cc1 (configuration not stated)
50 to 500 nM	NC(c1ccc(C(=O)Nc2ccncc2)cc1)C1CCCN1C(=O)Cc1cccc(Br)c1 (configuration not stated)
50 to 500 nM	NC(CNC(=O)C1(c2ccc(F)c(F)c2)CC1)c1ccc(C(=O)Nc2ccncc2)cc1 (configuration not stated)
500 to 5000 nM	Cc1cccc(CC(=O)N(C)CC(N)c2ccc(C(=O)Nc3ccncc3)cc2)c1 (configuration not stated)
500 to 5000 nM	CN(CC(N)c1ccc(C(=O)Nc2ccncc2)cc1)C(=O)C1CCOc2ccc(Cl)cc21 (configuration not stated)
50 to 500 nM	CCSCC(=O)NCC(N)c1ccc(C(=O)Nc2ccncc2)cc1 (configuration not stated)
50 to 500 nM	NC(CNC(=O)C1CCSc2ccccc21)c1ccc(C(=O)Nc2ccncc2)cc1 (configuration not stated)
500 to 5000 nM	NC(CNC(=O)C(c1ccccc1)C1CCCC1)c1ccc(C(=O)Nc2ccncc2)cc1 (configuration not stated)
500 to 5000 nM	CN(CC(N)c1ccc(C(=O)Nc2ccncc2)cc1)C(=O)C(C)(C)c1ccc(F)c(F)c1 (configuration not stated)
500 to 5000 nM	CC(C)(C(=O)N1CCCC1C(N)c1ccc(C(=O)Nc2ccncc2)cc1)c1ccsc1 (configuration not stated)
500 to 5000 nM	CS(=O)(=O)c1cccc(C(=O)NCC(N)c2ccc(C(=O)Nc3ccncc3)cc2)c1 (configuration not stated)
50 to 500 nM	NC(CNC(=O)c1cccs1)c1ccc(C(=O)Nc2ccncc2)cc1 (configuration not stated)
500 to 5000 nM	NC(c1ccc(C(=O)Nc2ccncc2)cc1)C1CCCN1C(=O)C1CCc2ccccc21 (configuration not stated)
50 to 500 nM	NC(CNC(=O)COc1ccc(F)cc1)c1ccc(C(=O)Nc2ccncc2)cc1 (configuration not stated)
50 to 500 nM	NC(CC(=O)NCc1ccc(F)cc1Cl)c1ccc(C(=O)Nc2ccncc2)cc1 (configuration not stated)
50 to 500 nM	NC(CC(=O)Nc1ccc(CO)cc1)c1ccc(C(=O)Nc2ccncc2)cc1 (configuration not stated)
50 to 500 nM	CCN(Cc1ccc([N+](=O)[O-])cc1)C(=O)CC(N)c1ccc(C(=O)Nc2ccncc2)cc1 (configuration not stated)

IC50	Structure (SMILES)
50 to 500 nM	NC(CNC(=O)c1ccccc1)c1ccc(C(=O)Nc2ccncc2)cc1 (configuration not stated)
50 to 500 nM	NC(CNC(=O)Nc1ccc(Cl)cc1)c1ccc(C(=O)Nc2ccncc2)cc1 (configuration not stated)
500 to 5000 nM	CCOC(=O)CCNC(=O)NCC(N)c1ccc(C(=O)Nc2ccncc2)cc1 (configuration not stated)
50 to 500 nM	CN(CCO)C(=O)CC(N)c1ccc(C(=O)Nc2ccncc2)cc1 (configuration not stated)
500 to 5000 nM	NC(c1ccc(C(=O)Nc2ccncc2)cc1)C1CCCN1C(=O)Cc1csc(-c2ccccc2)n1 (configuration not stated)
50 to 500 nM	NC(CC(=O)NC1CCN(Cc2ccccc2)CC1)c1ccc(C(=O)Nc2ccncc2)cc1 (configuration not stated)
500 to 5000 nM	NC(CNC(=O)c1cnccn1)c1ccc(C(=O)Nc2ccncc2)cc1 (configuration not stated)
500 to 5000 nM	CC(C)(C(=O)N1CCCC1C(N)c1ccc(C(=O)Nc2ccncc2)cc1)c1cccs1 (configuration not stated)
500 to 5000 nM	Cc1cccc(C(=O)NCC(N)c2ccc(C(=O)Nc3ccncc3)cc2)c1 (configuration not stated)
500 to 5000 nM	CN(CC(N)c1ccc(C(=O)Nc2ccncc2)cc1)C(=O)Cc1ccccc1 (configuration not stated)
500 to 5000 nM	CN(CC(N)c1ccc(C(=O)Nc2ccncc2)cc1)C(=O)Cc1cncc(Br)c1 (configuration not stated)
50 to 500 nM	NC(CNC(=O)CCC1CCCC1)c1ccc(C(=O)Nc2ccncc2)cc1 (configuration not stated)
500 to 5000 nM	CN(CC(N)c1ccc(C(=O)Nc2ccncc2)cc1)C(=O)C1(c2ccc(F)cc2)CCCC1 (configuration not stated)
500 to 5000 nM	CC1CCCC(C(=O)NCC(N)c2ccc(C(=O)Nc3ccncc3)cc2)C1 (configuration not stated)
50 to 500 nM	NC(CC(=O)NC(Cc1ccccc1)c1ccccc1)c1ccc(C(=O)Nc2ccncc2)cc1 (configuration not stated)
500 to 5000 nM	CN(CC(N)c1ccc(C(=O)Nc2ccncc2)cc1)C(=O)C1CCOc2ccc(F)cc21 (configuration not stated)
50 to 500 nM	NC(c1ccc(C(=O)Nc2ccncc2)cc1)C1CCCN1C(=O)Cc1ccc(Br)cc1 (configuration not stated)
50 to 500 nM	Cc1cc(Cl)ccc1NC(=O)NCC(N)c1ccc(C(=O)Nc2ccncc2)cc1 (configuration not stated)
500 to 5000 nM	CC(C)CCC(=O)NCC(N)c1ccc(C(=O)Nc2ccncc2)cc1 (configuration not stated)
500 to 5000 nM	NC(c1ccc(C(=O)Nc2ccncc2)cc1)C1CCCN1C(=O)C1CCOc2ccccc21 (configuration not stated)
500 to 5000 nM	COc1ccccc1CC(=O)N(C)CC(N)c1ccc(C(=O)Nc2ccncc2)cc1 (configuration not stated)
50 to 500 nM	NC(CC(=O)N[C@@H]1CCc2ccccc21)c1ccc(C(=O)Nc2ccncc2)cc1 (some centres not stated)
500 to 5000 nM	CN(CC(N)c1ccc(C(=O)Nc2ccncc2)cc1)C(=O)Cc1cccc2ccccc12 (configuration not stated)
50 to 500 nM	NC(CC(=O)NCC1CCCO1)c1ccc(C(=O)Nc2ccncc2)cc1 (configuration not stated)

— the Kinase Knowledgebase extract (Sharma et al. 2016)
